In patent publication US20250066320A1, “Active Ingredients with Sialagogue and Tingling/Fizzy Effect, and Preparations Containing Same” (Symrise AG, priority 2021, published 2025):

Test: Sensory tasting of the active ingredients (mouth-watering and/or tingling effect) by a trained expert panel
Assay type: in vivo, human
Conditions: for Sensory Rating: intensity of mouth-watering and/or tingling/fizzing effect (figure in brackets): 50 ppm
Protocol: The sensory tasting of the active ingredients according to the invention was carried out as follows: • (1) The active ingredients were each prepared in a 5% sugar solution or in an unflavored standard fondant mass. Fondant is the name for a soft, pasty sugar mass that is used to make various confectionery products. Fondant is made from water and sucrose as well as glucose syrup, invert sugar cream and/or sugar alcohols (e.g., sorbitol or mannitol). The mixture is boiled and then processed into a soft paste by kneading it vigorously and cooling it quickly. • (2) The concentration of the active ingredients was 25 or 50 ppm. • (3) The test samples were tested under practical conditions by a panel of experts with sensory training. For tasting, 3 to 7 tasters each rinsed their mouths with approx. 5 ml of the sugar solution and spat the solution out again. The mouth-watering and/or tingling effect was assessed on a scale of 1 (very weak) to 10 (very strong) and the profile evaluated.

[1] = 50 ppm in 5% sugar solution or unflavored fondant mass, 3 to 7 tasters
[2] = scale of 1 (very weak) to 10 (very strong)
[3] = 25 ppm in 5% sugar solution or unflavored fondant mass, 3 to 7 tasters

| SMILES | Sensory Rating (profile in words) [1] | Sensory Rating: intensity of mouth-watering and/or tingling/fizzing effect (figure in brackets) [2] | Sensory Rating (profile in words) [3] | Sensory Rating (profile in words) (dosage 25 and 50 ppm, cell not split by dosage) | Sensory Rating: intensity of tingling/fizzing effect (figure in brackets) (dosage 25 and 50 ppm, cell not split by dosage, scale of 1 (very weak) to 10 (very strong)) |
| --- | --- | --- | --- | --- | --- |
| O=C(c1ccccc1)N1CCN(C/C=C/c2ccccc2)CC1 [Compound 17, [4-[(E)-cinnamyl]piperazin-1-yl]-phenyl-methanone] | slightly tingling/ fizzing, slightly honey-like | 3 | – | – | – |
| O=C(c1ccccc1)N1CCN(CCc2ccccc2)CC1 [Compound 18, Phenyl-[4-(2-phenyl-ethyl)piperazin-1-yl]methanone] | slightly tingling/ fizzing and mouth-watering | 2-3 | no effect | – | – |
| O=C(c1ccccc1)N1CCN(CCC2CCCCC2)CC1 [Compound 19, [4-(2-cyclo-hexylethyl)piperazin-1-yl]-phenyl-methanone] | of mushrooms, fruity, slightly metallic taste, slightly tingling/ fizzing | 1-2 | fruity, slightly mouth-watering | – | – |
| O=C(c1ccccc1)N1CCC(CCCc2ccccc2)CC1 [Compound 20, Phenyl-[4-(3-phenyl-propyl)-1-piperidyl]-methanone] | slightly tingling/ fizzing (2), mouth-watering, Anthranilate- like, fruity note | slightly tingling/ fizzing (2), mouth-watering, Anthranilate- like, fruity note | – | – | – |
| O=C(c1ccccc1)N1CCN(CCCc2ccccc2)CC1 [Compound 21, Phenyl-[4-(3-phenylpropyl)piperazin-1-yl] methanone] | slightly tingling/ fizzing and mouth-watering | 2-3 | sweet, fruity, slightly tingling/ fizzing | – | – |
| O=C(c1ccccc1)N1CCCN(CCc2ccccc2)CC1 [Compound 22, Phenyl-[4-(2-phenyl-ethyl)-1,4-diazepan-1-yl] methanone] | very light metallic taste, remarkably mouth-watering and tingling/ fizzing | 4-5 | floral, linalool flavor | – | – |
| O=C(c1ccccc1)N1CCN(Cc2ccccc2)CC1 [Compound 23, (4-benzylpiperazin-1-yl)-phenyl-methanone] | Slightly floral taste, slightly metallic, not a pleasant taste, very slightly mouth-watering and tingling/fizzing | 3 | – | – | – |
| CCOc1ccc(C(=O)N2CCN(CCC3CCCCC3)CC2)cc1OCC [Compound 24, [4-(2-cyclo-hexylethyl)piperazin-1-yl]-(3,4-diethoxy-phenyl)methanone] | fruity taste (blueberries) | – | – | – | – |
| CCOc1ccc(C(=O)N2CCC(CCCc3ccccc3)CC2)cc1OCC [Compound 25, (3,4-Diethoxy-phenyl)-[4-(3-phenyl-propyl)-1-piperidyl]-methanone] | Very slightly tingling/fizzing (2-3), sharp, astringent | Very slightly tingling/fizzing (2-3), sharp, astringent | – | – | – |
| CCOc1ccc(C(=O)N2CCCN(CCc3ccccc3)CC2)cc1OCC [Compound 26, (3,4-Diethoxy-phenyl)-[4-(2-phenyl-ethyl)-1,4-diazepan-1-yl]methanone] | Very slightly tingling/fizzing (1-2), and mouth-watering (weak) | Very slightly tingling/fizzing (1-2), and mouth-watering (weak) | – | – | – |
| COc1ccc(C(=O)N2CCN(CCCCc3ccccc3)CC2)cc1OC [Compound 27, (3,4-Dimethoxy-phenyl)-[4-(4-phenyl-butyl)piperazin-1-yl]methanone] | slightly tingling/ fizzing (4-5), and mouth-watering, metallic after- taste, weakly burning | slightly tingling/ fizzing (4-5), and mouth-watering, metallic after- taste, weakly burning | – | – | – |
| COc1ccc(C(=O)N2CCN(CCc3ccccc3)CC2)cc1OC [Compound 28, (3,4-Dimethoxy-phenyl)-[4-(2-phenyl-ethyl)piperazin-1-yl]methanone] | – | – | – | slightly tingling/ fizzing (3) slightly metallic | slightly tingling/ fizzing (3) slightly metallic |
| COc1ccc(C(=O)N2CCN(CCC3CCCCC3)CC2)cc1OC [Compound 29, [4-(2-cyclo-hexylethyl)piperazin-1-yl]-(3,4-dimethoxy-phenyl)methanone] | slightly mouth-watering, slightly tingling/ fizzing (1-2), green note, light onion flavor | slightly mouth-watering, slightly tingling/ fizzing (1-2), green note, light onion flavor | – | – | – |
| COc1ccc(C(=O)N2CCC(CCCc3ccccc3)CC2)cc1OC [Compound 30, (3,4-Dimethoxy-phenyl)-[4-(3-phenyl-propyl)-1-piperidyl]methanone] | very slight tingling/fizzing and mouth-watering, dry in the mouth | – | – | – | – |
| COc1ccc(C(=O)N2CCN(CCCc3ccccc3)CC2)cc1OC [Compound 31, (3,4-Dimethoxy-phenyl)-[4-(3-phenyl-propyl)piperazin-1-yl]methanone] | tingling/ fizzing (5-6), and mouth-watering, fruity note, Honey flavor | tingling/ fizzing (5-6), and mouth-watering, fruity note, Honey flavor | – | – | – |
| COc1ccc(C(=O)N2CCCN(CCc3ccccc3)CC2)cc1OC [Compound 32, (3,4-Dimethoxy-phenyl)-[4-(2-phenyl-ethyl)-1,4-diazepan-1-yl]methanone] | very slightly tingling/ fizzing (1), slightly metallic taste | very slightly tingling/ fizzing (1), slightly metallic taste | – | – | – |
| COc1ccc(C(=O)N2CCN(Cc3ccccc3)CC2)cc1OC [Compound 33, (4-benzylpiperazin-1-yl)-(3,4-dimethoxy-phenyl)methanone] | very slightly tingling/ fizzing (1-2), slightly like marzipan | very slightly tingling/ fizzing (1-2), slightly like marzipan | – | – | – |
| COc1ccc(C(=O)N2CCN(CCCCc3ccccc3)CC2)cc1 [Compound 34, (4-Methoxy-phenyl)-[4-(4-phenyl-butyl)piperazin-1-yl]methanone] | strongly mouth-watering/ tingling/fizzing | 6 | tingling/ fizzing and mouth-watering effect, neutral taste | – | – |
| COc1ccc(C(=O)N2CCN(CCc3ccccc3)CC2)cc1 [Compound 35, (4-Methoxy-phenyl)-[4-(2-phenyl-ethyl)piperazin-1-yl]methanone] | slightly tingling/ fizzing (3) and mouth-watering, Acid taste, Honey note | 3 | slightly mouth-watering | – | – |
| COc1ccc(C(=O)N2CCN(CCC3CCCCC3)CC2)cc1 [Compound 36, [4-(2-cyclo-hexylethyl)piperazin-1-yl]-(4-methoxy-phenyl) methanone] | slightly tingling/fizzing (3), metallic taste | slightly tingling/fizzing (3), metallic taste | – | – | – |
| COc1ccc(C(=O)N2CCC(CCCc3ccccc3)CC2)cc1 [Compound 37, (4-Methoxy-phenyl)-[4-(3-phenyl-propyl)-1-piperidyl]methanone] | slightly tingling/ fizzing (2), light fruity note | slightly tingling/ fizzing (2), light fruity note | – | – | – |
| COc1ccc(C(=O)N2CCN(CCCc3ccccc3)CC2)cc1 [Compound 38, (4-Methoxy-phenyl)-[4-(3-phenylpropyl)piperazin-1-yl] methanone] | remarkably tingling/fizzing (6), numbing, Increasing effect over time | 6 | slightly mouth-watering, anesthetic | – | – |
| COc1ccc(C(=O)N2CCN(Cc3ccccc3)CC2)cc1 [Compound 40, (4-benzylpiperazin-1-yl)-(4-methoxy-phenyl)methanone] | mouth-watering, neutral, slightly tingling/ fizzing (1-2) | mouth-watering, neutral, slightly tingling/ fizzing (1-2) | – | – | – |
| CCOc1ccc(C(=O)N2CCN(CCCCc3ccccc3)CC2)cc1 [Compound 41, (4-ethoxyphenyl)-[4-(4-phenyl-butyl)piperazin-1-yl]methanone] | strong mouth- watering effect (8), long-lasting, Slightly hot | 8 | metallic, mouth- watering effect | – | – |
| CCOc1ccc(C(=O)N2CCN(C/C=C/c3ccccc3)CC2)cc1 [Compound 42, [4-[(E)-cinnamyl]piperazin-1-yl]-(4-ethoxy-phenyl)methanone] | slightly tingling (3-4), and mouth- watering, fruity, creamy, Vanilla flavor | slightly tingling (3-4), and mouth- watering, fruity, creamy, Vanilla flavor | – | – | – |
